According to ChEMBL document CHEMBL3885861, “Open TG-GATES”:

Species: Rattus norvegicus
Experiment: Open TG-GATES - Regimen: Single
Assay type: toxicity, organism-based, Sprague-Dawley
Parameters: regimen Single, gender Male, age 6 weeks
Details: in vivo, po, 15 mg/kg, route gavage, dose level Low; for APTT / Bas / Eos / Fbg / Hb / Ht / Lym / MCH / MCHC / MCV / Mono / Neu / PT / Plat / RBC / Ret / WBC: tissue Blood; for KIDNEY_L / KIDNEY_R / KIDNEY_TOTAL: tissue Kidney; for LIVER: tissue Liver; for A/G / ALP / ALT / AST / BUN / CRE / Ca / Cl / DBIL / GLC / IP / K / LDH / Na / PL / RALB / TBIL / TC / TG / TP / gamma-GTP: tissue Plasma

CN(C)CCC=C1c2ccccc2CCc2ccccc21 [AMITRIPTYLINE]
TERMINAL_BW (3 h): 194.5 g
APTT (3 h): 16.2 s
Bas (3 h): 0%
Eos (3 h): 1%
Fbg (3 h): 267.4 mg/dL
Hb (3 h): 12.8 g/dL
Ht (3 h): 39.3%
Lym (3 h): 73%
MCH (3 h): 21.2 pg
MCHC (3 h): 32.6%
MCV (3 h): 65 fL
Mono (3 h): 3%
Neu (3 h): 22.2%
PT (3 h): 16.2 s
Plat (3 h): 114.1 x10_4/uL
RBC (3 h): 604.8 x10_4/ul
Ret (3 h): 8.7%
WBC (3 h): 91.4 x10_2/uL
KIDNEY_L (3 h): 0.8 g
KIDNEY_R (3 h): 0.8 g
KIDNEY_TOTAL (3 h): 1.6 g
LIVER (3 h): 8.5 g
A/G (3 h): 0.8
ALP (3 h): 1536.8 IU/L
ALT (3 h): 54.2 IU/L
AST (3 h): 74.4 IU/L
BUN (3 h): 10 mg/dL
CRE (3 h): 0.2 mg/dL
Ca (3 h): 11.1 mg/dL
Cl (3 h): 106.2 meq/L
DBIL (3 h): 0.01 mg/dL
GLC (3 h): 181.6 mg/dL
IP (3 h): 8.8 mg/dL
K (3 h): 4.3 meq/L
LDH (3 h): 83.8 IU/L
Na (3 h): 143 meq/L
PL (3 h): 142 mg/dL
RALB (3 h): 2.5 g/dL
TBIL (3 h): 0.058 mg/dL
TC (3 h): 80.2 mg/dL
TG (3 h): 52 mg/dL
TP (3 h): 5.4 g/dL
gamma-GTP (3 h): 1 IU/L
TERMINAL_BW (6 h): 191.5 g
APTT (6 h): 16 s
Bas (6 h): 0%
Eos (6 h): 1%
Fbg (6 h): 277.4 mg/dL
Hb (6 h): 13 g/dL
Ht (6 h): 39.9%
Lym (6 h): 77.4%
MCH (6 h): 21.1 pg
MCHC (6 h): 32.6%
MCV (6 h): 64.6 fL
Mono (6 h): 2.6%
Neu (6 h): 18.4%
PT (6 h): 15.9 s
Plat (6 h): 120 x10_4/uL
RBC (6 h): 617.8 x10_4/ul
Ret (6 h): 9.4%
WBC (6 h): 75 x10_2/uL
KIDNEY_L (6 h): 0.8 g
KIDNEY_R (6 h): 0.8 g
KIDNEY_TOTAL (6 h): 1.6 g
LIVER (6 h): 7.8 g
A/G (6 h): 0.8
ALP (6 h): 1444.2 IU/L
ALT (6 h): 46.4 IU/L
AST (6 h): 77.6 IU/L
BUN (6 h): 8.8 mg/dL
CRE (6 h): 0.2 mg/dL
Ca (6 h): 10.6 mg/dL
Cl (6 h): 106.6 meq/L
DBIL (6 h): 0.014 mg/dL
GLC (6 h): 175.8 mg/dL
IP (6 h): 9.2 mg/dL
K (6 h): 4.2 meq/L
LDH (6 h): 58.4 IU/L
Na (6 h): 143 meq/L
PL (6 h): 144.4 mg/dL
RALB (6 h): 2.4 g/dL
TBIL (6 h): 0.07 mg/dL
TC (6 h): 84.4 mg/dL
TG (6 h): 43.8 mg/dL
TP (6 h): 5.3 g/dL
gamma-GTP (6 h): 1 IU/L
TERMINAL_BW (9 h): 192 g
APTT (9 h): 16.6 s
Bas (9 h): 0%
Eos (9 h): 0.8%
Fbg (9 h): 262.6 mg/dL
Hb (9 h): 12.8 g/dL
Ht (9 h): 39.3%
Lym (9 h): 67.4%
MCH (9 h): 21.5 pg
MCHC (9 h): 32.6%
MCV (9 h): 65.8 fL
Mono (9 h): 2.4%
Neu (9 h): 29%
PT (9 h): 15.7 s
Plat (9 h): 117.7 x10_4/uL
RBC (9 h): 597 x10_4/ul
Ret (9 h): 9.3%
WBC (9 h): 87.8 x10_2/uL
KIDNEY_L (9 h): 0.9 g
KIDNEY_R (9 h): 0.9 g
KIDNEY_TOTAL (9 h): 1.7 g
LIVER (9 h): 7.4 g
A/G (9 h): 0.9
ALP (9 h): 1309.6 IU/L
ALT (9 h): 44.6 IU/L
AST (9 h): 71.2 IU/L
BUN (9 h): 8.4 mg/dL
CRE (9 h): 0.2 mg/dL
Ca (9 h): 10.7 mg/dL
Cl (9 h): 106.6 meq/L
DBIL (9 h): 0.006 mg/dL
GLC (9 h): 165.2 mg/dL
IP (9 h): 10.4 mg/dL
K (9 h): 3.9 meq/L
LDH (9 h): 69.2 IU/L
Na (9 h): 142.8 meq/L
PL (9 h): 140.4 mg/dL
RALB (9 h): 2.5 g/dL
TBIL (9 h): 0.062 mg/dL
TC (9 h): 78.6 mg/dL
TG (9 h): 33.2 mg/dL
TP (9 h): 5.4 g/dL
gamma-GTP (9 h): 1 IU/L
TERMINAL_BW (24 h): 206.4 g
APTT (24 h): 16 s
Bas (24 h): 0%
Eos (24 h): 1%
Fbg (24 h): 259.2 mg/dL
Hb (24 h): 12.8 g/dL
Ht (24 h): 38.8%
Lym (24 h): 77.8%
MCH (24 h): 21.6 pg
MCHC (24 h): 32.9%
MCV (24 h): 65.5 fL
Mono (24 h): 3%
Neu (24 h): 17.4%
PT (24 h): 16.4 s
Plat (24 h): 112.7 x10_4/uL
RBC (24 h): 592.4 x10_4/ul
Ret (24 h): 8.1%
WBC (24 h): 89.3 x10_2/uL
KIDNEY_L (24 h): 0.9 g
KIDNEY_R (24 h): 0.9 g
KIDNEY_TOTAL (24 h): 1.8 g
LIVER (24 h): 9.4 g
A/G (24 h): 0.8
ALP (24 h): 1812.6 IU/L
ALT (24 h): 52.4 IU/L
AST (24 h): 78.6 IU/L
BUN (24 h): 14 mg/dL
CRE (24 h): 0.2 mg/dL
Ca (24 h): 10.9 mg/dL
Cl (24 h): 107 meq/L
DBIL (24 h): 0.018 mg/dL
GLC (24 h): 179.2 mg/dL
IP (24 h): 7.3 mg/dL
K (24 h): 4.2 meq/L
LDH (24 h): 74.2 IU/L
Na (24 h): 143 meq/L
PL (24 h): 146.8 mg/dL
RALB (24 h): 2.6 g/dL
TBIL (24 h): 0.056 mg/dL
TC (24 h): 77.2 mg/dL
TG (24 h): 82.2 mg/dL
TP (24 h): 5.6 g/dL
gamma-GTP (24 h): 1 IU/L
